# Test results as given in the supplement of paper PMC11061612.
# Tests used:
# Carboplatin = compound: C1CC(C1)(C(=O)[O-])C(=O)[O-].N.N.[Pt+2] [Carboplatin]; settings: max 10 µM
# Method in brief: (§1)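 In 1536-well plates, cancer cell lines in 7.5 μl DMEM/F12 or RPMI with 10% FBS spent 24 hours at 37°C and 5% CO2 and were then dosed for 72 hours with final DMSO typically 0.2%. Viability was read by CellTiter-Glo 2.0 luminescence and scaled between blank-well and DMSO-well means. The single-agent IC50 was fitted from dose responses using a logistic curve in a non-linear mixed effects model, and that logistic curve had two parameters.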
# AZD5363 = compound: C1CN(CCC1(C(=O)N[C@@H](CCO)C2=CC=C(C=C2)Cl)N)C3=NC=NC4=C3C=CN4 [AZD5363]; settings: max 10 µM
# Method in brief: as §1
# AZD1775 = compound: C=CCn1c(=O)c2cnc(Nc3ccc(N4CCN(C)CC4)cc3)nc2n1-c1cccc(C(C)(C)O)n1 [AZD1775]; settings: max 3 µM
# Method in brief: as §1
# Trametinib = compound: CC(=O)Nc1cccc(-n2c(=O)n(C3CC3)c(=O)c3c(Nc4ccc(I)cc4F)n(C)c(=O)c(C)c32)c1 [Trametinib]; settings: max 1 µM
# Method in brief: as §1
# Paclitaxel = compound: CC(=O)O[C@H]1C(=O)[C@@]2(C)[C@H]([C@H](OC(=O)c3ccccc3)[C@]3(O)C[C@H](OC(=O)[C@H](O)[C@@H](NC(=O)c4ccccc4)c4ccccc4)C(C)=C1C3(C)C)[C@]1(OC(C)=O)CO[C@@H]1C[C@@H]2O [Paclitaxel]; settings: max 3 µM
# Method in brief: as §1
# Palbociclib = compound: CC(=O)c1c(C)c2cnc(Nc3ccc(N4CCNCC4)cn3)nc2n(C2CCCC2)c1=O [Palbociclib]; settings: max 10 µM
# Method in brief: as §1
# AZD1390 = compound: CC(C)n1c(=O)n(C)c2cnc3cc(F)c(-c4ccc(OCCCN5CCCCC5)nc4)cc3c21 [AZD1390]; settings: max 0.3 µM
# Method in brief: as §1
# Venetoclax = compound: CC1(C)CCC(CN2CCN(c3ccc(C(=O)NS(=O)(=O)c4ccc(NCC5CCOCC5)c([N+](=O)[O-])c4)c(Oc4cnc5[nH]ccc5c4)c3)CC2)=C(c2ccc(Cl)cc2)C1 [Venetoclax]; settings: max 1 µM
# Method in brief: as §1
# Dasatinib = compound: CC1=C(C(=CC=C1)Cl)NC(=O)C2=CN=C(S2)NC3=CC(=NC(=N3)C)N4CCN(CC4)CCO [Dasatinib]; settings: max 2 µM
# Method in brief: as §1
# SG3199 = compound: CC1=CN2[C@@H](C1)C=NC3=CC(=C(C=C3C2=O)OC)OCCCCCOC4=C(C=C5C(=C4)N=C[C@@H]6CC(=CN6C5=O)C)OC [SG3199]; settings: max 0.001 µM
# Method in brief: as §1
# AZD2811 = compound: CCN(CCO)CCCOc1ccc2c(Nc3cc(CC(=O)Nc4cccc(F)c4)[nH]n3)ncnc2c1 [AZD2811]; settings: max 1 µM
# Method in brief: as §1
# SN-38 = compound: CCc1c2c(nc3ccc(O)cc13)-c1cc3c(c(=O)n1C2)COC(=O)[C@]3(O)CC [SN-38]; settings: max 0.3 µM
# Method in brief: as §1
# AZD0156 = compound: CN(C)CCCOc1ccc(-c2ccc3ncc4c(c3c2)n(C2CCOCC2)c(=O)n4C)cn1 [AZD0156]; settings: max 3 µM
# Method in brief: as §1
# AZD4320 = compound: CN(CC[C@H](CSC1=CC=CC=C1)NC2=C(C=C(C=C2)S(=O)(=O)NC(=O)C3=CC=C(C=C3)N4CCC(CC4)[C@H](C5=CC=CC=C5C6=CC=C(C=C6)Cl)O)S(=O)(=O)C(F)(F)F)CCO [AZD4320]; settings: max 1 µM
# Method in brief: as §1
# Alisertib = compound: COc1cc(Nc2ncc3c(n2)-c2ccc(Cl)cc2C(c2c(F)cccc2OC)=NC3)ccc1C(=O)O [Alisertib]; settings: max 10 µM
# Method in brief: as §1
# Etoposide = compound: COc1cc([C@@H]2c3cc4c(cc3[C@@H](O[C@@H]3O[C@@H]5CO[C@@H](C)O[C@H]5[C@H](O)[C@H]3O)[C@H]3COC(=O)[C@H]23)OCO4)cc(OC)c1O [Etoposide]; settings: max 10 µM
# Method in brief: as §1
# Gefitinib = compound: COc1cc2ncnc(Nc3ccc(F)c(Cl)c3)c2cc1OCCCN1CCOCC1 [Gefitinib]; settings: max 10 µM
# Method in brief: as §1
# Prexasertib = compound: COc1cccc(OCCCN)c1-c1cc(Nc2cnc(C#N)cn2)n[nH]1 [Prexasertib]; settings: max 1 µM
# Method in brief: as §1
# Doxorubicin = compound: COc1cccc2c1C(=O)c1c(O)c3c(c(O)c1C2=O)C[C@@](O)(C(=O)CO)C[C@@H]3O[C@H]1C[C@H](N)[C@H](O)[C@H](C)O1 [Doxorubicin]; settings: max 1 µM
# Method in brief: as §1
# AZD5153 = compound: COc1nnc2ccc(N3CCC(c4ccc(OCCN5CCN(C)C(=O)[C@H]5C)cc4)CC3)nn12 [AZD5153]; settings: max 1 µM
# Method in brief: as §1
# Lapatinib = compound: CS(=O)(=O)CCNCc1ccc(-c2ccc3ncnc(Nc4ccc(OCc5cccc(F)c5)c(Cl)c4)c3c2)o1 [Lapatinib]; settings: max 10 µM
# Method in brief: as §1
# AZD8186 = compound: C[C@@H](Nc1cc(F)cc(F)c1)c1cc(C(=O)N(C)C)cc2c(=O)cc(N3CCOCC3)oc12 [AZD8186]; settings: max 10 µM
# Method in brief: as §1
# Crizotinib = compound: C[C@@H](Oc1cc(-c2cnn(C3CCNCC3)c2)cnc1N)c1c(Cl)ccc(F)c1Cl [Crizotinib]; settings: max 10 µM
# Method in brief: as §1
# Savolitinib = compound: C[C@@H](c1ccc2nccn2c1)n1nnc2ncc(-c3cnn(C)c3)nc21 [Savolitinib]; settings: max 1 µM
# Method in brief: as §1
# AZD6738 = compound: C[C@@H]1COCCN1C2=NC(=NC(=C2)C3(CC3)[S@](=N)(=O)C)C4=C5C=CNC5=NC=C4 [AZD6738]; settings: max 10 µM
# Method in brief: as §1
# AZD5991 = compound: Cc1c2c(nn1C)CSCc1cc(n(C)n1)CSc1cc(c3ccccc3c1)OCCCc1c(C(=O)O)n(C)c3c-2c(Cl)ccc13 [AZD5991]; settings: max 1 µM
# Method in brief: as §1
# AZD7648 = compound: Cc1cc2ncnn2cc1Nc1ncc2c(n1)n(C1CCOCC1)c(=O)n2C [AZD7648]; settings: max 10 µM
# Method in brief: as §1
# Taselisib = compound: Cc1nc(-c2cn3c(n2)-c2ccc(-c4cnn(C(C)(C)C(N)=O)c4)cc2OCC3)n(C(C)C)n1 [Taselisib]; settings: max 10 µM
# Method in brief: as §1
# Selumetinib = compound: Cn1cnc2c(F)c(Nc3ccc(Br)cc3Cl)c(C(=O)NOCCO)cc21 [Selumetinib]; settings: max 10 µM
# Method in brief: as §1
# SRA737 = compound: N#Cc1cnc(Nc2cc(NC[C@H]3CNCCO3)c(C(F)(F)F)cn2)cn1 [SRA737]; settings: max 10 µM
# Method in brief: as §1
# MK-2206 = compound: NC1(c2ccc(-c3nc4ccn5c(=O)[nH]nc5c4cc3-c3ccccc3)cc2)CCC1 [MK-2206]; settings: max 10 µM
# Method in brief: as §1
# Gemcitabine = compound: Nc1ccn([C@@H]2O[C@H](CO)[C@@H](O)C2(F)F)c(=O)n1 [Gemcitabine]; settings: max 0.3 µM
# Method in brief: as §1
# [1] = compound: O=C(Nc1ccc2[nH]nc(-c3ccncc3)c2c1)[C@@H]1CCN(CC(=O)N2CCN(c3ccc(-c4ncccn4)cc3)CC2)C1; settings: max 5 µM
# Method in brief: as §1
# Olaparib = compound: O=C(c1cc(Cc2n[nH]c(=O)c3ccccc23)ccc1F)N1CCN(C(=O)C2CC2)CC1 [Olaparib]; settings: max 10 µM
# Method in brief: as §1
# 5-Fluorouracil = compound: O=c1[nH]cc(F)c(=O)[nH]1 [5-Fluorouracil]; settings: max 20 µM
# Method in brief: as §1
Cell Line,"IC50, cell viability 72 h (Carboplatin)","IC50, cell viability 72 h (AZD5363)","IC50, cell viability 72 h (AZD1775)","IC50, cell viability 72 h (Trametinib)","IC50, cell viability 72 h (Paclitaxel)","IC50, cell viability 72 h (Palbociclib)","IC50, cell viability 72 h (AZD1390)","IC50, cell viability 72 h (Venetoclax)","IC50, cell viability 72 h (Dasatinib)","IC50, cell viability 72 h (SG3199)","IC50, cell viability 72 h (AZD2811)","IC50, cell viability 72 h (SN-38)","IC50, cell viability 72 h (AZD0156)","IC50, cell viability 72 h (AZD4320)","IC50, cell viability 72 h (Alisertib)","IC50, cell viability 72 h (Etoposide)","IC50, cell viability 72 h (Gefitinib)","IC50, cell viability 72 h (Prexasertib)","IC50, cell viability 72 h (Doxorubicin)","IC50, cell viability 72 h (AZD5153)","IC50, cell viability 72 h (Lapatinib)","IC50, cell viability 72 h (AZD8186)","IC50, cell viability 72 h (Crizotinib)","IC50, cell viability 72 h (Savolitinib)","IC50, cell viability 72 h (AZD6738)","IC50, cell viability 72 h (AZD5991)","IC50, cell viability 72 h (AZD7648)","IC50, cell viability 72 h (Taselisib)","IC50, cell viability 72 h (Selumetinib)","IC50, cell viability 72 h (SRA737)","IC50, cell viability 72 h (MK-2206)","IC50, cell viability 72 h (Gemcitabine)","IC50, cell viability 72 h [1]","IC50, cell viability 72 h (Olaparib)","IC50, cell viability 72 h (5-Fluorouracil)"
ONS-76 (Other Solid Carcinomas),> 10000 nM,> 10000 nM,1190 nM,23.9 nM,66.1 nM,> 10000 nM,> 300 nM,> 1000 nM,> 2000 nM,> 1 nM,> 1000 nM,43.7 nM,> 3000 nM,> 1000 nM,> 10000 nM,8960 nM,> 10000 nM,8.7 nM,252 nM,940 nM,> 10000 nM,> 10000 nM,> 10000 nM,> 1000 nM,1000 nM,> 1000 nM,> 10000 nM,> 10000 nM,1910 nM,1690 nM,> 10000 nM,257 nM,270 nM,> 10000 nM,> 20000 nM
PANC-10-05 (Pancreatic Carcinoma),> 10000 nM,> 10000 nM,1270 nM,438 nM,378 nM,> 10000 nM,> 300 nM,> 1000 nM,1510 nM,> 1 nM,> 1000 nM,59.5 nM,> 3000 nM,> 1000 nM,> 10000 nM,> 10000 nM,> 10000 nM,> 1000 nM,> 1000 nM,732 nM,> 10000 nM,> 10000 nM,> 10000 nM,> 1000 nM,> 10000 nM,> 1000 nM,> 10000 nM,7170 nM,> 10000 nM,> 10000 nM,> 10000 nM,> 300 nM,3330 nM,> 10000 nM,> 20000 nM
TT (Thyroid Gland Carcinoma),> 10000 nM,> 10000 nM,> 3000 nM,> 1000 nM,> 3000 nM,> 10000 nM,> 300 nM,> 1000 nM,> 2000 nM,> 1 nM,> 1000 nM,68.8 nM,> 3000 nM,> 1000 nM,> 10000 nM,> 10000 nM,> 10000 nM,249 nM,> 1000 nM,808 nM,> 10000 nM,> 10000 nM,> 10000 nM,> 1000 nM,> 10000 nM,> 1000 nM,> 10000 nM,> 10000 nM,> 10000 nM,> 10000 nM,> 10000 nM,> 300 nM,> 5000 nM,> 10000 nM,> 20000 nM
U-2-OS (Osteosarcoma),> 10000 nM,> 10000 nM,1080 nM,140 nM,162 nM,> 10000 nM,> 300 nM,> 1000 nM,> 2000 nM,> 1 nM,> 1000 nM,> 300 nM,> 3000 nM,> 1000 nM,> 10000 nM,> 10000 nM,> 10000 nM,17.4 nM,> 1000 nM,> 1000 nM,> 10000 nM,> 10000 nM,> 10000 nM,> 1000 nM,> 10000 nM,> 1000 nM,> 10000 nM,> 10000 nM,> 10000 nM,5430 nM,> 10000 nM,> 300 nM,2130 nM,> 10000 nM,> 20000 nM
VCaP (Prostate Carcinoma),> 10000 nM,7960 nM,1450 nM,> 1000 nM,22.4 nM,> 10000 nM,> 300 nM,> 1000 nM,> 2000 nM,> 1 nM,> 1000 nM,205 nM,> 3000 nM,> 1000 nM,> 10000 nM,9350 nM,> 10000 nM,85.4 nM,> 1000 nM,122 nM,> 10000 nM,> 10000 nM,> 10000 nM,> 1000 nM,> 10000 nM,316 nM,> 10000 nM,3150 nM,> 10000 nM,> 10000 nM,9700 nM,65 nM,> 5000 nM,> 10000 nM,> 20000 nM
